{
  "source": "patent US10959427B2",
  "about": "“Attractant of ladybugs, aphid's natural enemy” (Zhejiang University, priority 2018, dated 2021)",
  "system": "Coccinella septempunctata",
  "experiment": "Wind tunnel experiment: behavioral responses of ladybugs to the attractant",
  "type": "in vivo",
  "conditions": "for Proportion of Knocking Filter Paper, Female Proportion / Proportion of Passing Through ½ of Wind Tunnel, Female Proportion / Proportion of Take Off, Female Proportion: female ladybugs; for Proportion of Knocking Filter Paper, Female Proportion / Proportion of Knocking Filter Paper, Male Proportion: number of insects knocking filter paper/total number of insects; for Proportion of Knocking Filter Paper, Female Proportion / Proportion of Passing Through ½ of Wind Tunnel, Female Proportion / Proportion of Take Off, Female Proportion / Proportion of Knocking Filter Paper, Male Proportion / Proportion of Passing Through ½ of Wind Tunnel, Male Proportion / Proportion of Take Off, Male Proportion: 30 min, 28° C., wind speed 0.3 m/s; for Proportion of Passing Through ½ of Wind Tunnel, Female Proportion / Proportion of Passing Through ½ of Wind Tunnel, Male Proportion: number of insects passing through ½ of wind tunnel/total number of insects; for Proportion of Take Off, Female Proportion / Proportion of Take Off, Male Proportion: number of take-off insects/total number of insects; for Proportion of Knocking Filter Paper, Male Proportion / Proportion of Passing Through ½ of Wind Tunnel, Male Proportion / Proportion of Take Off, Male Proportion: male ladybugs; for Attraction of ladybugs in the wind tunnel, result in words: summary of wind tunnel results",
  "description": "(§1) Wind tunnel experiments were performed using a wind tunnel device to determine the behavioral responses of ladybugs to the attractant. The wind tunnel device is 90 cm long, 35 cm wide and 35 cm high. The desired ladybugs were put into a glass tube 30 minutes before the test, and both the ends of the glass tube were sealed with absorbent cotton to adapt the ladybugs to the environment in the wind tunnel. The filter paper-loaded compound was placed on the upper air outlet, and the wind speed in the wind tunnel was 0.3 m/s. The whole process of bioassay was carried out at 28° C. The glass tube was placed at the end of the lower air outlet of the wind tunnel. Timing started and lasted for 30 min. The numbers of take-offs, directional flights, and proximity to attractant sources were recorded and their relative proportions were calculated. The experimental method was referred to the wind tunnel experiment of Binyameen M et al (Journal of Chemical Ecology, 2013, 39(10):1273-1283).\nThe behavioral responses of ladybugs to the attractants in Comparative Examples 1-5 were measured by using a wind tunnel device (same conditions as in Example 1).\nas §1, with “to the attractants. The wind” for “to the attractant. The wind”, “glass tube with the ladybugs was placed” for “glass tube was placed”, “min. The proportions of take-offs,” for “min. The numbers of take-offs,”, “sources were recorded.” for “sources were recorded and their relative proportions were calculated. The experimental method was referred to the wind tunnel experiment of Binyameen M et al (Journal of Chemical Ecology, 2013, 39(10):1273-1283).”\nWind tunnel experiments were performed using a wind tunnel device to determine the behavioral responses of ladybugs to the attractants of Example 3 and Comparative Examples 6-10.\nWind tunnel experiments were performed using a wind tunnel device to determine the behavioral responses of ladybugs to the attractants of Example 4 and Comparative Examples11-20.\nNote: Coccinella septempunctata were used in the above wind tunnel experiments; when the Rodolia limbata, Harmonia axyridis, Propylaea japonica and Chilocorus rubidus hope were taken as the experiment objects, the results (trend) were basically the same as that of Coccinella septempunctata.",
  "data": [
    {"smiles": "C=CC1(C)CCC(C(=C)C)CC1C(=C)C", "note": "(stereo not shown) [Comparative Example 16, 1-vinyl-1-methyl-2,4-di (propyl-1-ene-2-yl) cyclohexane]", "values": [
      {"measurement": "Proportion of Knocking Filter Paper, Female Proportion", "value": 0, "unit": "%"},
      {"measurement": "Proportion of Passing Through ½ of Wind Tunnel, Female Proportion", "value": 13.3, "unit": "%"},
      {"measurement": "Proportion of Take Off, Female Proportion", "value": 0, "unit": "%"},
      {"measurement": "Proportion of Knocking Filter Paper, Male Proportion", "value": 11.7, "unit": "%"},
      {"measurement": "Proportion of Passing Through ½ of Wind Tunnel, Male Proportion", "value": 73.3, "unit": "%"},
      {"measurement": "Proportion of Take Off, Male Proportion", "value": 21.7, "unit": "%^"},
      {"measurement": "Attraction of ladybugs in the wind tunnel, result in words", "value": "better effect on attracting male ladybugs but worse than Example 4"}
    ]},
    {"smiles": "CCC/C=C/C(=O)O", "note": "[Comparative Example 18, trans-2-hexenoic acid]", "values": [
      {"measurement": "Proportion of Knocking Filter Paper, Female Proportion", "value": 10, "unit": "%"},
      {"measurement": "Proportion of Passing Through ½ of Wind Tunnel, Female Proportion", "value": 53.3, "unit": "%"},
      {"measurement": "Proportion of Take Off, Female Proportion", "value": 11.7, "unit": "%"},
      {"measurement": "Proportion of Knocking Filter Paper, Male Proportion", "value": 8.3, "unit": "%"},
      {"measurement": "Proportion of Passing Through ½ of Wind Tunnel, Male Proportion", "value": 46.7, "unit": "%"},
      {"measurement": "Proportion of Take Off, Male Proportion", "value": 20, "unit": "%"},
      {"measurement": "Attraction of ladybugs in the wind tunnel, result in words", "value": "poor attraction to female and male ladybugs"}
    ]},
    {"smiles": "CC(C)CC=O", "note": "[Comparative Example 19, isovaleraldehyde]", "values": [
      {"measurement": "Proportion of Knocking Filter Paper, Female Proportion", "value": 11.7, "unit": "%"},
      {"measurement": "Proportion of Passing Through ½ of Wind Tunnel, Female Proportion", "value": 58.3, "unit": "%"},
      {"measurement": "Proportion of Take Off, Female Proportion", "value": 13.3, "unit": "%"},
      {"measurement": "Proportion of Knocking Filter Paper, Male Proportion", "value": 15, "unit": "%"},
      {"measurement": "Proportion of Passing Through ½ of Wind Tunnel, Male Proportion", "value": 56.7, "unit": "%"},
      {"measurement": "Proportion of Take Off, Male Proportion", "value": 10, "unit": "%"},
      {"measurement": "Attraction of ladybugs in the wind tunnel, result in words", "value": "poor attraction to female and male ladybugs"}
    ]},
    {"smiles": "CC(C)=CCC/C(C)=C/CC/C(C)=C/CC/C=C(\\C)CC/C=C(\\C)CCC=C(C)C", "note": "[Comparative Example 20, squalene]", "values": [
      {"measurement": "Proportion of Knocking Filter Paper, Female Proportion", "value": 13.3, "unit": "%"},
      {"measurement": "Proportion of Passing Through ½ of Wind Tunnel, Female Proportion", "value": 61.7, "unit": "%"},
      {"measurement": "Proportion of Take Off, Female Proportion", "value": 20, "unit": "%"},
      {"measurement": "Proportion of Knocking Filter Paper, Male Proportion", "value": 6.7, "unit": "%"},
      {"measurement": "Proportion of Passing Through ½ of Wind Tunnel, Male Proportion", "value": 66.7, "unit": "%"},
      {"measurement": "Proportion of Take Off, Male Proportion", "value": 26.8, "unit": "%^"},
      {"measurement": "Attraction of ladybugs in the wind tunnel, result in words", "value": "number of insects knocking filter paper was significant less that the other examples"}
    ]}
  ]
}
